Reference: patent publication US20070274947A1, “Antisense Oligonucleotides Directed to Ribonucleotide Reductase R1 and Uses Thereof in the Treatment of Cancer” (priority 2003, published 2007)
Entries after “also recorded” stand apart in the source; their conditions may differ.

Columns and labels:
[1] = Tissue distribution after continuous infusion in rats; assay type: in vivo; conditions: rat
[2] = system: A2058 (melanoma); test: Colony forming ability, A2058; assay type: cell-based, human; conditions: 0.2 μM antisense oligonucleotide/lipofectin, 4 hours
Description: (§1) The effect of SEQ ID NO:1 on the colony forming ability were evaluated in the following human tumor cell lines:
(§2) Tumor cells were washed in 5 ml of phosphate buffered saline, pH 7.2, prior to 0.2 μM antisense oligonucleotide/lipofectin treatment for 4 hours. The medium was removed and the cells were gently washed with 5 ml of growth medium. The cells were then cultured in growth medium for seven to ten days. Surviving colonies were visualized by methylene blue staining and colonies of 50 or more cells were scored (Choy et al., 1988 and Huang and Wright, 1994). Results are summarized from 4 to 8 trials for each tumor cell line.

[3] = system: H460 (lung); test: Colony forming ability, H460; assay type: cell-based, human; conditions: 0.2 μM antisense oligonucleotide/lipofectin, 4 hours
Description: as §1, §2

[4] = system: 28S rRNA, 18S rRNA, thioredoxin mRNA, β-actin mRNA, GAPDH mRNA, thioredoxin reductase mRNA, ribosomal protein S9 mRNA, RNase MRP RNA, RNase P RNA and R2 mRNA; test: Northern blot of other cellular RNAs in A2058 human melanoma cells (specificity); assay type: cell-based; conditions: 0.2 μM, 4 hr with Lipofectin
Description: A2058 human melanoma cells, grown to subconfluency (70-80%), were treated with 0.2 μM of phosphorothioate antisense ODNs for 4 hr in the presence of cationic lipid (Lipofectin reagent, final concentration, 5 μg/ml, GIBCO BRL) and Opti-MEM (GIBCO BRL). Cells were washed once with PBS and incubated for 16 hr in α-MEM medium (GIBCO BRL) containing 10% FBS. Total RNA was prepared in TRIzol reagent (GIBCO BRL) and northern blot analysis was performed as previously described (Hurta and Wright, J. Cell. Biochem. 57: 543-56, 1995) with some modifications. RNA prepared from cells treated with lipofectin alone (Control), SEQ ID NO:1 and scrambled control analogue (SEQ ID NO:1 Scr) were subjected to electrophoresis through 1% formaldehyde agarose gels followed by transfer to nylon membrane. The blots were hybridized with ^32P-labeled probes that detect R1 mRNA, 28S rRNA, 18S rRNA, thioredoxin mRNA, […], GAPDH mRNA, thioredoxin reductase mRNA, ribosomal protein S9 mRNA, RNase MRP RNA, RNase P RNA and R2 mRNA.

[5] = system: SIHA human cervical cancer cells; test: SIHA cervical tumor growth in SCID mice; assay type: in vivo
Description: SIHA human cervical cancer cells (1×10^7 cells in 100 μl of PBS) were subcutaneously injected into the right flank of 6-7 week old female SCID mice. After the size of tumor reached an approximate volume of 100 mm^3, 7 days post tumor cell injection, SEQ ID NO:1 was administered by bolus infusion into the tail vein every other day at 10 mg/kg. Control animals received saline alone for the same period. Treatments lasted for 16 days thereafter. Antitumor activities were estimated by the inhibition of tumor volume (FIG. 11A), which was measured with a caliper on five different occasions over 16-day period. Each point represents mean tumor volume calculated from 10 animals per experimental group.

[6] = system: C8161 human metastatic melanoma cells; test: Experimental metastasis of C8161 cells, in vivo treatment (lung nodules, SCID mice); conditions: 10 mg/kg/48 hr from day 2, 5-7 weeks
Description: B. C8161 human metastatic melanoma cells were seeded into 100 mm tissue culture dishes at a density of 2×10^6 and incubated overnight at 37° C. in α-MBM medium supplemented with 10% FBS. The cells were trypsinized, collected by centrifugation and aliquots were removed from the suspension to determine the cell viability using trypan blue exclusion test. Approximately, 1×10^5 cells suspended in 0.1 ml of PBS were injected into the tail veins of 6-8 week old female SCID mice. Treatment with saline or 10 mg/kg/48 hr SEQ ID NO:1 or SEQ ID NO:1-SCR (scrambled control) was initiated after 2 days. Estimates of the number of lung nodules were made 5-7 weeks later, after excised lungs from individual mice were stained with picric acid dye solution (75% picric acid, 20% formaldehyde, 5% glacial acetic acid), see FIG. 12B. The bars represent the mean number of nodules per mouse with standard error.

[7] = system: LS513 cells; test: LS513 multi-drug resistant colon adenocarcinoma growth in SCID mice; assay type: in vivo, human
Description: LS513 cells (1×10^7 cells in 100 μl of PBS) were subcutaneously injected into the right flank of 6-7 weeks old female SCID mice. After the size of tumor reached an approximate volume of 100 mm^3, 8 days post tumor cell injection, SEQ ID NO:1 was administered by bolus infusion into the tail vein every other day at 10 mg/kg. Control animals received saline alone for the same period. Antitumor effect of SEQ ID NO:1 was further compared to that of CPT-11. CPT-11 was administered i.p. for 5 days at a dose of 20 mg/kg/day. Antitumor activities were estimated by the inhibition of tumor volume, which was measured with calipers. Each point represents mean tumor volume calculated from 10 animals per experimental group (FIG. 16A). Tumor weights were measured after animals were sacrificed at the end of the treatment (FIGS. 16B and 16C). These cells are not resistant to CPT-11, which was used as a positive control.

[8] = system: CB7 Friend retrovirus-induced mouse Erytheroleukemia cells; test: Survival of SCID mice bearing mouse erythroleukemia (CB7); assay type: in vivo; conditions: 10 mg/kg i.v. every second day, stopped at day 71; one mouse died at day 30 and another at day 54; untreated died within 36 days
Description: In vivo studies were conducted to assess the therapeutic potential of SEQ ID NO:1 in the treatment of mouse Erythroleukemia. CB7 Friend retrovirus-induced mouse Erytheroleukemia cells (5×10^6) collected from subconfluent logarithmically growing cultures were injected i.v. via the tail vein of each animal and disease was allowed to establish for 2 days. SEQ ID NO:1 in normal saline was administered by tail vein injections every second day at a dose of 10 mg/kg. Control animals received saline alone, without oligonucleotide. Treatment with SEQ ID NO:1 was stopped at day 71. Antitumor effects of SEQ ID NO:1 treatment were assessed by the examination of survival of mice (FIG. 19). All mice died as a consequence of tumor progression within 36 days when left untreated. All SEQ ID NO:1 treated animals, on the other hand, survived beyond day 71 except one mouse which died at day 30 and another at day 54.

[9] = cynomolgus monkey, in vivo
[10] = Toxicokinetics in repeat dose (14-day and 21-day) continuous infusion studies in monkeys; conditions: monkey

5′-CTCTAGCGTCTTAAAGCCGA-3′ (CTCTAGCGTCTTAAAGCCGA; chemistry not given here) [SEQ ID NO:1]
levels in the brain [1]: very low or below the limits of detection; also recorded: undetectable
tissue concentrations, rank order [1]: kidney>liver>spleen>lymph node (monkey)>lung (monkey)>heart; also recorded: highest in the kidney followed by the liver, spleen and heart
inhibition in colony forming ability [2]: greater than 60%
inhibition in colony forming ability [3]: greater than 60%
expression of other cellular RNAs [4]: significant decrease in R1 mRNA but not other RNAs; also recorded: No effects were observed
inhibition of tumor volume ([5]; 10 mg/kg i.v. every other day, 16 days, vs saline): strong inhibitory effects
weight of excised tumors ([5]; end of treatments): strong antitumor effect
number of lung nodules [6]: no visible lung nodules
efficacy compared with CPT-11 ([7]; CPT-11 20 mg/kg/day i.p. for 5 days): more effective than CPT-11
tumor growth (volume, weight) ([7]; SCID mice, 10 mg/kg i.v. every other day, vs saline): significant delay of tumor growth
survival of mice [8]: > 71 days
clinical parameters in mid and low dose animals [9]: Transient changes
complement split product Bb [9]: appeared to increase
activated partial thromboplastin time (APTT) ([9]; 40 mg/kg/day): reversible increase
AUC estimates versus duration and dose ([10]; Part 1 and Part 2 Recovery animals): proportional with the duration of infusion and the administered dose level
sex differences in toxicokinetic profile ([10]; Parts 1 and 2): no apparent sex-differences
